Read-outs that look alike come from different tables or passages of the source.
Legend:
HCT-8 cells = assay: Cytotoxicity in MTS/PMS assay on HCT-8 cells; type: cell-based; details: HCT-8 cultures, 48 hrs
Method: Cells were passaged in maintenance medium at 37°C in a 6% CO2/94% humidified air incubator.
Cytotoxicity of Orlistat was tested in an MTS/PMS assay (Hommer et al., 2003). Orlistat stock solution and DMSO solvent (control) were diluted in culture medium and serial dilutions were applied to HCT-8 cultures for 48 hrs.

[1] = cited from earlier work
Cryptosporidium parvum [2] = details: 1.5x10^6 parasites, 5.0 mg Orlistat per gram dry matter
Source text: Error bars represent standard deviations. […] Error bars represent standard deviations.

[3] = within the physiological pH range; cited from earlier work
Cryptosporidium parvum [4] = assay: In vitro inhibition of the development of Cryptosporidium parvum in HCT-8 cells (cell culture-based enzyme-immune assay)
Method: In a cell culture-based enzyme-immune assay increasing concentrations of Orlistat (1 - 15 µM) diluted in culture medium were tested for the inhibition of the development of Cryptosporidium parvum. The parasites were allowed to develop in HCT-8 cells for 48 hrs. The optical readings were converted into parasite growth relative to mean of the controls [%]. […] Orlistat (# 04139, Sigma, Deisenhofen, Germany) was dissolved in DMSO at 10 mM (stock solution). […] Cells were passaged in maintenance medium at 37°C in a 6% CO2/94% humidified air incubator. HCT-8 cells were seeded in 96-well culture plates and infected with Cryptosporidium parvum oocysts (IOWA strain) as described (Hommer et al., 2003). At 2 hrs post infection (p.i.) non-invaded parasites were removed by washing. Orlistat diluted in culture medium or medium alone (negative control) were added. After a total of 48 hrs p.i. culture plates were washed with PBS and fixed with methanol for 15 min. Intracellular stages of Cryptosporidium parvum were detected by an enzyme-immune assay using a monoclonal antibody (McDonald et al., 1995) as described previously (Hommer et al., 2003). Experiments were performed in six-fold replica. Optical density (OD) readings were corrected by the OD of non-infected HCT-8 cells. The means of the infected controls without Orlistat were taken as 100% growth rate. […]

Structure (SMILES): CCCCCCCCCCC[C@@H](C[C@@H]1OC(=O)[C@H]1CCCCCC)OC(=O)[C@H](CC(C)C)NC=O [Orlistat]
- cytotoxic effect on HCT-8 cells detected at concentrations (HCT-8 cells): > 20 µM
- solubility in chloroform ([1]; chloroform): freely soluble
- solubility in methanol and ethanol ([1]; methanol and ethanol): very soluble
- solubility in water ([1]; water): practically insoluble
- reduction of total parasite excretion by a factor (Cryptosporidium parvum [2]; interferon-gamma deficient mice, p < 0.0006): 125
- reduction of total parasite excretion by a factor (Cryptosporidium parvum [2]; interleukin-12 deficient mice, p < 0.008): over 80
- pKa [3]: no pKa within the physiological pH range
- inhibition at 15 µM (Cryptosporidium parvum [4]; Cryptosporidium parvum, 15 µM, 48 hrs p.i., HCT-8 host cells, compared to the infected but untreated controls, read-out: inhibition rate): > 90%
- reduction of parasite development in the HCT-8 host cells (Cryptosporidium parvum [4]; all Orlistat concentrations (1 - 15 µM), p < 0.0002): concentration dependent, statistically significant reduction
